Results on seven compounds are retold here after ChEMBL document CHEMBL1201862, “PubChem BioAssay data set” (2004).

Assay [1] is described as follows: HIV-1 Env-mediated cell fusion inhibitors, dose response, CCR5-tropic Env (AID 2279). Type of assay: functional.
Assay [2] addresses T1, Long-chain-fatty-acid--AMP ligase FadD28 (Mycobacterium tuberculosis, UniProt P9WQ59).
T1 sequence (P9WQ59 whole entry): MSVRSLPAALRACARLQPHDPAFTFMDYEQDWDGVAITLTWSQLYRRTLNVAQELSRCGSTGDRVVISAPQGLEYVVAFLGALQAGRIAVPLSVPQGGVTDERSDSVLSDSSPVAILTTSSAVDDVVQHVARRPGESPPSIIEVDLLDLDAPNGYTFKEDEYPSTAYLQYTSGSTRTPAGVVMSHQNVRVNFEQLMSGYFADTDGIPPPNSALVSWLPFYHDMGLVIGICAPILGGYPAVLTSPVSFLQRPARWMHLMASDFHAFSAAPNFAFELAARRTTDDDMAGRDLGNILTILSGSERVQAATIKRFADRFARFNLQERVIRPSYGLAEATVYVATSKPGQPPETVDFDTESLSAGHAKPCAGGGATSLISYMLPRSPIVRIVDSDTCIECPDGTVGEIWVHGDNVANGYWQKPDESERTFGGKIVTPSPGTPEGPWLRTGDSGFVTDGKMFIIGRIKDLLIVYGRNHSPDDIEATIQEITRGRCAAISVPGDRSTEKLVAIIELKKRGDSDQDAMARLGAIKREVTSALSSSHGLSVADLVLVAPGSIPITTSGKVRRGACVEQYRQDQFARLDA
Put plainly: Fluorescence polarization aasay to screen for inhibitors that compete for the binding of FadD28 to a bisubstrate Measured in Biochemical System Using Plate Reader - 2147-01_Inhibitor_Dose_CherryPick_Activity. Type of assay: functional, Mycobacterium tuberculosis H37Rv. (In general: Fluorescence polarisation rises when a labelled molecule tumbles more slowly, as on binding a larger partner.)

Assay [3] is described as follows: CRF-BP/CRF-R2 complex antagonists, dose response, cell-based, uHTS hits, 384-well (AID 651639). To be noted: read-out: IC50_Mean. It counts as functional, Homo sapiens.
The target of assay [4] is T2, Corticotropin-releasing factor receptor 2/Corticotropin-releasing factor-binding protein (Homo sapiens, UniProt P24387+Q13324).
T2 sequence (Q13324 whole entry): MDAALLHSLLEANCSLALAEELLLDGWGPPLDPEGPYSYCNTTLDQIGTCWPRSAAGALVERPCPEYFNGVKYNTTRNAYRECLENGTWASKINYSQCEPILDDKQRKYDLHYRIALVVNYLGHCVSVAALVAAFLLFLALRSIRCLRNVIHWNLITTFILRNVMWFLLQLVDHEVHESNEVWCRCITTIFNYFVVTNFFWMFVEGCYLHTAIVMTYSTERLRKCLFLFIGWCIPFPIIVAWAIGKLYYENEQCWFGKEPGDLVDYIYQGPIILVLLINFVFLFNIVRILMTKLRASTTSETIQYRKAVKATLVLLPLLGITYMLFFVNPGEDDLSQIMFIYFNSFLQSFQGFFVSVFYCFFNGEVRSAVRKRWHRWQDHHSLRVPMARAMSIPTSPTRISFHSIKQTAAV
T2 sequence (P24387 whole entry): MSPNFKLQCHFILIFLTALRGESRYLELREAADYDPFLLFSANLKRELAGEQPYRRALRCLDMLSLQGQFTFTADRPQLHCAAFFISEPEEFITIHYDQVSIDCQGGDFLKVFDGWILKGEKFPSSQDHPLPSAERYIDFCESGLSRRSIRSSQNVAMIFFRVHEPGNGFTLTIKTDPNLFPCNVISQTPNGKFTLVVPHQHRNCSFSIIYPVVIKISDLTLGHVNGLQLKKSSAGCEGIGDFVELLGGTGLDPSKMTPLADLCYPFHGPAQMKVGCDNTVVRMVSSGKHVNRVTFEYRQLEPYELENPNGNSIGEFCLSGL
Put plainly: activators of CRF receptor 2 with binding protein – uHTS hits, confirmation (AID 602473). It counts as functional. To be noted: read-out: EC50_Mean.

In assay [5] the target is FAD-linked sulfhydryl oxidase ALR (Homo sapiens, UniProt P55789). As to the kind of experiment: inhibitors of human ALR sulfhydryl oxidase, dose response, biochemical, H2O2 detection, luminescence, cherry-pick (AID 493248).
For assay [6], the target named is T2, Corticotropin-releasing factor receptor 2/Corticotropin-releasing factor-binding protein. Put plainly: Dose Response confirmation of uHTS hits for small molecule antagonists of the CRF-binding protein and CRF-R2 receptor complex. It counts as functional. To be noted: read-out: IC50_Mean.
Assay [7] in a line: cytotoxicity in HPDE-C7 cells, cell-based, fluorescence, HTS (AID 430). Type of assay: functional. The conditions noted are these: Homo sapiens.
Assay [8] in a line: cytotoxicity in KRAS-transformed pancreatic duct cells, primary screen, cell-based, fluorescence, HTS (AID 431). Type of assay: functional. The conditions noted are these: Homo sapiens.
In another assay the target is T3, Streptokinase A (Streptococcus pyogenes serotype M1, UniProt P10520).
T3 sequence (P10520 whole entry): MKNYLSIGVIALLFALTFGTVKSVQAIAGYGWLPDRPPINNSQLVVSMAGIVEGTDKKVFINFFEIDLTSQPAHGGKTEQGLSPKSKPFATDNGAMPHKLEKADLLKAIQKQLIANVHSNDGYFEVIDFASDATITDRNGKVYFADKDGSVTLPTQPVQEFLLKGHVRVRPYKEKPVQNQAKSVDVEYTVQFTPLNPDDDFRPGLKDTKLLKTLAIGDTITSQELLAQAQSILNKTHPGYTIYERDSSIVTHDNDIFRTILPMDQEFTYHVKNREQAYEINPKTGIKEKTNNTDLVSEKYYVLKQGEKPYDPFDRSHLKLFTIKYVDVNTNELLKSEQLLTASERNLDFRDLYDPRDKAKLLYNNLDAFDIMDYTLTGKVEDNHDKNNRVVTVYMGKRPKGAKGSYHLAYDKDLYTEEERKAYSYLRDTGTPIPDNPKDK
Put plainly: Absorbance Microorganism-Based Dose Response Follow up to Identify Inhibitors of Streptokinase Expression. [Related pubchem assays: 1677 (Project Summary), 1915, 1914, 1902 (Retest at Dose), 1900 (Counter Screen), 1662 (Primary HTS)]. It counts as functional, Streptococcus pyogenes M1 GAS. Background: The purpose of a counterscreen is to sort out artefacts and off-target activity.

The test system of another assay is Streptococcus. As to the kind of experiment: Streptococcus pyogenes growth inhibition counter-screen, dose response, counter-screen for streptokinase expression inhibitor project, luminescence, BacTiter-Glo, strain UMAA2166 (AID 2477). It counts as functional, organism-based.
The nature of assay [9]: Counterscreen for IDE inhibitors: Luminescence-based cell-based high throughput dose response assay to identify compounds that are cytotoxic to HEK cells. [Related pubchem assays: 434962 (Primary screen (IDE inhibitors in singlicate)), 449730 (Counterscreen (Cytotoxicity in triplicate)), 435028 (Confirmation (IDE inhibitors in triplicate)) …. It counts as functional. The conditions noted are these: HEK293.

The target of another assay is T4, Insulin-degrading enzyme (Homo sapiens, UniProt P14735).
T4 sequence (P14735 whole entry): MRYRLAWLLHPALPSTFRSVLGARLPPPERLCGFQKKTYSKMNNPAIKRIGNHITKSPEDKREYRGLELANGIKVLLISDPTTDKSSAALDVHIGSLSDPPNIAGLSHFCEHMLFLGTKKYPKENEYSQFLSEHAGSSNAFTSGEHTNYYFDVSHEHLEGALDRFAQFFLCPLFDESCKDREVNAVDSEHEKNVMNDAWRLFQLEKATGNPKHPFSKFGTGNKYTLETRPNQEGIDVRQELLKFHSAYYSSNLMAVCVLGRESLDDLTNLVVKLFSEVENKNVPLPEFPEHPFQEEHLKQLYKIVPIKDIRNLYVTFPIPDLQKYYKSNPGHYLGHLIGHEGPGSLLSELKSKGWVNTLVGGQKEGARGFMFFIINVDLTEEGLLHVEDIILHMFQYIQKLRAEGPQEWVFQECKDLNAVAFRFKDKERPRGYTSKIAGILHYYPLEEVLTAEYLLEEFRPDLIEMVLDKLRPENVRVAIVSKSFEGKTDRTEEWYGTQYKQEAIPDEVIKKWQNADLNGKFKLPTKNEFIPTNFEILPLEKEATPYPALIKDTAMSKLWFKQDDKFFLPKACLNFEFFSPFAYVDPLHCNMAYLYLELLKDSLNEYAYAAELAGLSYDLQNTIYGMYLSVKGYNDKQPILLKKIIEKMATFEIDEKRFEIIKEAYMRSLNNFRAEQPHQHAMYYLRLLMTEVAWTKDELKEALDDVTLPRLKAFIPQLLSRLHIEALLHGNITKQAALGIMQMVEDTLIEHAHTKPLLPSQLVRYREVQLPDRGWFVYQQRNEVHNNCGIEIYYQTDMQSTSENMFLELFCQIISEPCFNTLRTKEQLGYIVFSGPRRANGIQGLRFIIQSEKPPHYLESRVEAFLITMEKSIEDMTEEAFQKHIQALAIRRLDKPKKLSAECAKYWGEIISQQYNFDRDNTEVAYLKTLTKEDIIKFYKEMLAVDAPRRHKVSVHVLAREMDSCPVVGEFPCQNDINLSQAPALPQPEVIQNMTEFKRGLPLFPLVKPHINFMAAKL
As to the kind of experiment: Dose Response: Fluorescence polarization-based cell-based high throughput dose response assay for inhibitors of insulin-degrading enzyme (IDE). [Related pubchem assays: 434962 (Primary screen (IDE inhibitors in singlicate)), 449730 (Counterscreen (Cytotoxicity in triplicate)), 435028 (Confirmation (IDE inhibitors in triplicate)), 434984 (Summary …. It counts as functional.

Assay [10] in a line: Luminescence Cell-Based Dose Retest to Confirm Inhibitors of Cancer Stem Cells. [Related pubchem assays (depositor defined):AID2717, AID2721]. Type of assay: functional. The conditions noted are these: Homo sapiens.
Assay [11] has as its target Voltage-dependent T-type calcium channel subunit alpha-1H (Homo sapiens, UniProt O95180). Type of assay: functional.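 Note: channel activity triggered by adding a high calcium stimulation buffer.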
A further assay concerns the target Prothrombin (Homo sapiens, UniProt P00734). As to the kind of experiment: Thrombin 1536 HTS Dose Response Confirmation. [Related pubchem assays: 1046 (Thrombin 1536 HTS; hits were confirmed in this assay)]. It counts as functional.
The target in the next assay is Cytochrome P450 2C9 (Homo sapiens, UniProt P11712). To be noted: Potency.

One may read the AC50 as the concentration giving half of the maximal activity seen.

Where a name gives a salt, the structure may show the parent alone. Calls of active or inactive are those of the source.

Chain of Cytochrome P450 2C9 (P11712 whole entry): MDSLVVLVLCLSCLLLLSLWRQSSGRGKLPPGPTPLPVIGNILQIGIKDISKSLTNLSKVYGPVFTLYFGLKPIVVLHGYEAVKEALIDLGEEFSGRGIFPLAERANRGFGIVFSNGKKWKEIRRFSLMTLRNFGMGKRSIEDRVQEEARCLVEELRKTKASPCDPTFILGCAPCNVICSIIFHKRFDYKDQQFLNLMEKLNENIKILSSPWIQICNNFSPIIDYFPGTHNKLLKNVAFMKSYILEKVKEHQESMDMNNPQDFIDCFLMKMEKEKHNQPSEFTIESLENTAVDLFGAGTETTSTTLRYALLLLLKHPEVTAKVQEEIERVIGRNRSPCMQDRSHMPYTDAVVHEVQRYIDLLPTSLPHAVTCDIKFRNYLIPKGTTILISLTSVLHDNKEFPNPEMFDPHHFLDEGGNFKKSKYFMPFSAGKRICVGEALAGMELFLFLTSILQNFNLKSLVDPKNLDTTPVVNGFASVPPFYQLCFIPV
Chain of FAD-linked sulfhydryl oxidase ALR (P55789 whole entry): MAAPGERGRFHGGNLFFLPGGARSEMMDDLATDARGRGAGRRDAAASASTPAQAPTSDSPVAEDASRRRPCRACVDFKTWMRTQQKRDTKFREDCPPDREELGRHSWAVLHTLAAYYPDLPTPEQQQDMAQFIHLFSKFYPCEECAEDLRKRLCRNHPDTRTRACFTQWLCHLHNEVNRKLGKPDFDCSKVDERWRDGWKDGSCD
Chain of Voltage-dependent T-type calcium channel subunit alpha-1H (O95180 whole entry): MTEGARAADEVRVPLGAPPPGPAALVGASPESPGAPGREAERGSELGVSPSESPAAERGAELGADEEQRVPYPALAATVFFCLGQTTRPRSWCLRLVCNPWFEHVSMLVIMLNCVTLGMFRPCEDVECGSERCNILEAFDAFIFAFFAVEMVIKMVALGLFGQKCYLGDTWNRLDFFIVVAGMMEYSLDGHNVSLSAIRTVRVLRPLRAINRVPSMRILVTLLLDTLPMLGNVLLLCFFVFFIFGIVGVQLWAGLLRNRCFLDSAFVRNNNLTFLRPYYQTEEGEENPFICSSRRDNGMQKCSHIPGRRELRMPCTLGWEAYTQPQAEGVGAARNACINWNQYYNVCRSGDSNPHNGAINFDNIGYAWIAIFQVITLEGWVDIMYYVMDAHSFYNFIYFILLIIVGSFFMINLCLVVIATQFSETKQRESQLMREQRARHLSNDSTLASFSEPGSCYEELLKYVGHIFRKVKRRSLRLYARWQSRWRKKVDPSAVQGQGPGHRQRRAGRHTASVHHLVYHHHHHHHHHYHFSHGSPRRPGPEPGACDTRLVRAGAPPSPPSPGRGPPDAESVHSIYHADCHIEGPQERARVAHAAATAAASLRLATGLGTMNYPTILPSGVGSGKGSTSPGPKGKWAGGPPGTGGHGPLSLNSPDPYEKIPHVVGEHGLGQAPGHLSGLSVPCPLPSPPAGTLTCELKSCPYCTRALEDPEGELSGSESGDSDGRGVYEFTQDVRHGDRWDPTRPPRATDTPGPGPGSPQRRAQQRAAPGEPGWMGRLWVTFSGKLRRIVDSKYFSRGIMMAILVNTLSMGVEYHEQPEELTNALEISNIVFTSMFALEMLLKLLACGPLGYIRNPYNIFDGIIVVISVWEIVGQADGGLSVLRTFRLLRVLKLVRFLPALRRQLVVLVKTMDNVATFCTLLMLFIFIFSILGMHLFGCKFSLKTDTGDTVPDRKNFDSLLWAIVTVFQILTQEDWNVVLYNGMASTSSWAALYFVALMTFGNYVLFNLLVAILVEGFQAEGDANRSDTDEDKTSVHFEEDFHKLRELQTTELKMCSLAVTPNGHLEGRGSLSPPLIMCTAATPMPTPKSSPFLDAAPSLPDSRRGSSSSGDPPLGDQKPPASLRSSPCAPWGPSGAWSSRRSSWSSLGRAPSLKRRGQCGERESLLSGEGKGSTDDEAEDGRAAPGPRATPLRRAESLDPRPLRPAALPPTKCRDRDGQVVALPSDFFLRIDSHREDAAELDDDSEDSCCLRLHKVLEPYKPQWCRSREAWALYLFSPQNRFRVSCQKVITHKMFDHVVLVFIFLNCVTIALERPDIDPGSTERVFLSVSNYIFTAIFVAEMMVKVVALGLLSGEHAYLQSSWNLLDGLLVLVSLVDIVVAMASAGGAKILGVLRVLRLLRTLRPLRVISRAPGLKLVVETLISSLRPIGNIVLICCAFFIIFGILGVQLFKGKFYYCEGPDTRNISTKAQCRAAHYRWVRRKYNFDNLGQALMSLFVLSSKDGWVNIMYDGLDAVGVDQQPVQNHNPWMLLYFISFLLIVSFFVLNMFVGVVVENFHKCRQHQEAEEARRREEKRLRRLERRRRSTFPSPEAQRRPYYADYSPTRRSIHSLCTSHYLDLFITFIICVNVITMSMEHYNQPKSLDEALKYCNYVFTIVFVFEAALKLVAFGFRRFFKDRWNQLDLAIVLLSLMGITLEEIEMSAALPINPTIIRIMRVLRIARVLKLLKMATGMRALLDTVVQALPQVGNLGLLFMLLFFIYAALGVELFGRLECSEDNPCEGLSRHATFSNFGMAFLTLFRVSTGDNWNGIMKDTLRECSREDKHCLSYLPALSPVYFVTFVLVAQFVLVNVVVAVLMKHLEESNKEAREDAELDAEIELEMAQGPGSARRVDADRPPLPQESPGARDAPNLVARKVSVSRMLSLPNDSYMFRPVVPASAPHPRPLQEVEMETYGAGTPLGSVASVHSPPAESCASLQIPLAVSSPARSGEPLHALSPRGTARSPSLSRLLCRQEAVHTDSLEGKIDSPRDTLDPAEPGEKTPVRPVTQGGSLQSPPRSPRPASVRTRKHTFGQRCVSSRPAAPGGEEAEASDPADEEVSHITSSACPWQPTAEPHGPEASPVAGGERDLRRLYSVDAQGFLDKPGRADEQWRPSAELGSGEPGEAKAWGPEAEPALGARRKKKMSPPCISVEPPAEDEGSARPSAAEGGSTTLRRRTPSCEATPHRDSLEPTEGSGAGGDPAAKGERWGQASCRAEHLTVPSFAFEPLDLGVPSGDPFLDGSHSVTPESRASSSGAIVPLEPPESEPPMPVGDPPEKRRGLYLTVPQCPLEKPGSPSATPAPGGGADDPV

With `O=C(O)c1ccccc1NC(=O)c1ccccc1Nc1ccccc1`, the results for the IC50 in assay [1], in assay [3] and in assay [6] were > 50 µM (active), > 20 µM (inactive) and 5.46 µM (active), respectively. Moreover, the AC50 in [2] was > 100 µM (inactive); in assay [5], 9.47 µM (active). Moreover, the EC50 in [4] was > 53 µM (inactive).

On to `Cc1ccc(-n2c(C)cc(C3N=C(N)Nc4nc5ccccc5n43)c2C)c(C)c1` (stereo not drawn), for which the figures for the EC50 in assay [7] and in assay [8] were 11 µM (active) and 12.7 µM (active), respectively.

With `CCCOc1ccc(-c2nc(Oc3ccc(OC)cc3)c3ccccc3n2)cc1`, the values for the EC50 on Streptokinase A and in the assay with Streptococcus were 179 µM (active) and > 500 µM (not active), respectively.

For `COc1ccccc1N1CCN(C(=O)c2cc(N3C(=O)C4C5CCC(C5)C4C3=O)ccc2Cl)CC1` (stereo not drawn), the IC50 in assay [9] is 27.8 µM (not active); at Insulin-degrading enzyme, > 55.9 µM (not active).

For the compound `Fc1ccc(C(c2ccc(F)cc2)N2CCN(C/C=C/c3ccccc3)CC2)cc1` [FLUNARIZINE DIHYDROCHLORIDE], the values for the EC50 in assay [7], in [8] and in assay [11] were 5.99 µM (active), 5.85 µM (active) and 5.62 µM (active), respectively. Also, the AC50 in [10] was 4.94 µM (active).

Consider `Cc1cc(C(=O)OCC(=O)c2cccc([N+](=O)[O-])c2)c2cccc(C)c2n1`, for which, at Prothrombin, the IC50 was > 50 µM (inconclusive).

In the case of `CC(C)C[C@@H](CC(=O)N[C@H](CC(=O)N[C@@H]1CCNC[C@H]1C(=O)N[C@H](CC(=O)N[C@@H](CCC(=O)O)CC(=O)O)Cc1c[nH]c2ccccc12)C(C)C)NC(=O)[C@@H]1CCCC[C@H]1N`, the AC50 at Cytochrome P450 2C9 is 25.1 µM (inconclusive).
